In PubChem BioAssay (NCI):
Values joined by “and” are separate entries in the source; they are usually repeats but may differ in a detail not shown here. Identical values can stand only once.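 Each compound was tested at five concentrations against cells in 96-well plates for 48 hours. At the GI50, growth is halved. The concentration for full growth arrest is given as TGI.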

Legend:
Assay in all cases: growth of human tumour cells (NCI), 48 h
NCI-H522 lung = tested on: NCI-H522 lung
HCC-2998 colon = tested on: HCC-2998 colon
SF-295 CNS = tested on: SF-295 CNS
UACC-62 melanoma = tested on: UACC-62 melanoma
SF-539 CNS = tested on: SF-539 CNS
NCI/ADR-RES ovarian = tested on: NCI/ADR-RES ovarian
A498 renal = tested on: A498 renal
PC-3 prostate = tested on: PC-3 prostate
TK-10 renal = tested on: TK-10 renal
MOLT-4 leukemia = tested on: MOLT-4 leukemia

| SMILES | GI50 (NCI-H522 lung) | TGI (NCI-H522 lung) | GI50 (HCC-2998 colon) [µM] | TGI (HCC-2998 colon) | GI50 (SF-295 CNS) [µM] | GI50 (UACC-62 melanoma) [µM] | TGI (UACC-62 melanoma) | GI50 (SF-539 CNS) | TGI (SF-539 CNS) | TGI (NCI/ADR-RES ovarian) [µM] | GI50 (A498 renal) [µM] | GI50 (PC-3 prostate) [µM] | TGI (PC-3 prostate) | GI50 (TK-10 renal) [µM] | TGI (TK-10 renal) | GI50 (MOLT-4 leukemia) [µM] | TGI (MOLT-4 leukemia) | TGI (SF-295 CNS) [µM] | GI50 (NCI/ADR-RES ovarian) [µM] | TGI (A498 renal) [µM] |
| --- | --- | --- | --- | --- | --- | --- | --- | --- | --- | --- | --- | --- | --- | --- | --- | --- | --- | --- | --- | --- |
| Cc1cc(NC(=O)NC(=O)c2ccccc2NC(=O)CN)ccc1Oc1ncc(Br)cn1 | 0.269 µM and 0.096 µM | 2.24 µM and 0.472 µM | 0.354 | 18 µM and 2.68 µM | < 0.01 | 0.112 | 19.8 µM and 15.4 µM | 0.0762 µM and 0.0509 µM | 0.351 µM and 0.481 µM | 12.7 | < 0.01 | 0.0816 | 18.8 µM and > 100 µM | 3.73 | 36.4 µM and 25.3 µM | 0.0807 | 75 µM and > 100 µM |  |  |  |
| COc1ccc(-c2ccccc2)cc1-c1c(Nc2cc(Cl)cc(Cl)c2O)c(=O)c1=O | 1.41 µM | > 50 µM | 1.78 | > 50 µM | 1.26 | 1.29 | > 50 µM | 1.59 µM | > 50 µM | > 50 | 0.726 | 1.37 | > 50 µM | 2.84 | > 50 µM | 1.78 | > 50 µM | 3.69 | 1.38 | 2.2 |
| Cc1cc(C)c2c(N)c3cccc(C)c3nc2n1 | 2.61 µM | 9.7 µM | 1.94 | 4.92 µM | 1.44 |  |  | 1.61 µM | 5.01 µM | 3.99 | 1.48 | 2.44 | 7.61 µM | 1.83 | 7.05 µM | 2.17 | 10 µM | 8.07 | 1.54 | 3.11 |
| Cc1cc2nc3c4cccc(O)c4n(CCN(C)C)c3nc2cc1C | 2.15 µM | 6.49 µM | 1.46 | 2.99 µM | 3.58 | 1.73 | 3.73 µM | 1.51 µM | 3.23 µM | 11.4 | 2.09 | 1.88 | 12.8 µM | 4.37 | 19.8 µM | 0.443 | 8.98 µM | 14 | 1.97 | 9.08 |
| CNCCOC(=O)/C=C1/CCC2C(C(O)CC3C(C)(C(=O)OC)CCCC23C)C1C (stereo not given) | < 0.01 µM | 0.0203 µM | 0.0329 | 0.115 µM | 0.0209 | 0.0235 | 0.0559 µM | 0.0206 µM | 0.0408 µM | 0.0378 | 0.0161 | 0.0214 | 0.202 µM | 0.0168 | 0.0351 µM | < 0.01 | 0.0203 µM | 0.0452 | 0.0185 | 0.0585 |
| C=C1C(=O)O[C@H]2C[C@@H]1CCC1(C)OC1CC/C(C)=C/CC[C@H]2C (stereo not given in full) | 37.9 µM | > 100 µM | 18.9 | 33.1 µM | 12.3 | 17.5 | 31.3 µM | 28.8 µM | 50.6 µM | 35.4 | 17.7 | 19.4 | 33.5 µM | 17.6 | 31.8 µM | 18 | 33.5 µM | 26.3 | 18.5 | 33.6 |
| CN(C)CCNC(=O)c1nc([N+](=O)[O-])cn1C |  | > 100 µM |  | > 100 µM |  |  | > 100 µM |  | > 100 µM | > 100 |  |  | > 100 µM |  | > 100 µM |  | > 100 µM | > 100 |  | > 100 |
